In patent US20030166629A1, “Cyclic quaternary ammonium compounds” (priority 1999, published 2003):

System: citric acid-induced cough responses
Experiment: Antitussive activity against citric acid aerosol-induced cough in conscious guinea-pigs
Assay type: in vivo, guinea-pig
Details: aerosol pre-treatment at 5.0 mg/ml for 5 minutes immediately before citric acid (1M) exposure, vehicle 25% ethanol, 15 minute observation period
Source text: The following method is one of the general methods available to determine the antitussive activity of the compounds of the present invention.
Male albino Dunkin-Hartley strain guinea-pigs (weight 300-400 g) can be obtained from various commercial suppliers.
The method is a modification of that described by Adcock J. J., Schneider C. and Smith T. W., “Effects of Morphine and a Novel Opioid Pentapeptide BW443C, on Cough, Nociception and Ventilation in the Unanaesthetized Guinea-pig”, Br. J. Pharmacol., 93, 93-100 (1988). […]
Cylinder air is introduced into the exposure chamber at a flow rate of 1 liter/min, maintained by a needle valve and monitored by a rotameter. […]
Cough responses are induced by exposure to an aerosol of citric acid (1M) for 10 minutes. Animals are continuously monitored by trained observer, and the number of coughs are counted during a 15 minute period from commencement of the citric acid aerosol administration. […]
The three types of response are differentiated primarily by sound and visual observation. […] Each cough is marked on the Grass polygraph paper trace, and from these record numbers, frequency and time of onset of coughs are determined. […]
Quantities of drugs are weighed out and dissolved in a vehicle. […] The sequence of pre-treatment administration is determined according to a 4×4 Latin Square design. […]

## CCCCC[N+]1(C)CCCCC1C(=O)Nc1c(C)cccc1C.[I-] (stereo not shown) [N-methyl-bupivacaine iodide, 2-{[(2,6-Dimethylphenyl)amino]carbonyl}-1-methyl-1-pentylpiperidinium iodide]
  inhibition of cough responses compared with vehicle pre-treated guinea pigs: > 90%
